Results published in patent US8759013B2, “Dual-target biosensor cell assays” (Corning Incorporated, priority 2008, dated 2014).
Entries after “also recorded” stand apart in the source; their conditions may differ. Read-outs that look alike come from different tables or passages of the source.

How the values were obtained:
[1] = system: endogenous receptors in A431 cells; assay: LOPAC library agonist screening with biosensor cellular assay (DMR); type: cell-based, human; conditions: for identification of beta-adrenoceptor agonists as hits in the agonist screen: 1 microM
Protocol: (§1) Corning® Epic® wavelength interrogation system was used.
Furthermore, a ligand-induced DMR is a real time kinetic response containing many useful parameters (e.g., phases, amplitudes and kinetics) for analyzing ligand pharmacology. The LOPAC library was used to screen agonists for endogenous receptors in A431 cells using real time kinetic measurements.
First, the response in terms of wavelength shift between before and 2 min after stimulation was calculated.
Second, the responses in terms of wavelength shift between before and 50 min after stimulation were calculated.
Third, the responses in terms of wavelength shift between 2 min and 50 min after stimulation were calculated. The difference in resonant wavelength between the two time points was plotted as a function of compounds (FIG. 8).

[2] = molecular target: T1, histamine receptor subtype 1 (H1R) (Homo sapiens, UniProt P35367); assay: Antagonist pretreatment against the histamine-induced DMR signal in A431 cells; type: cell-based; parameters: endogenous in cells; host or cells: A431 (human epidermoid carcinoma), quiescent after serum starvation; conditions: pretreatment of A431 with compound at 1 μM
[3] = molecular target: T1, histamine receptor subtype 1 (H1R); assay: Dual receptor-specific antagonist screening (LOPAC), histamine response; type: cell-based; parameters: endogenous in cells; host or cells: A431 (human epidermoid carcinoma), quiescent after serum starvation
[4] = molecular target: T2, β2-adrenergic receptor (β2AR) (Homo sapiens, UniProt P07550); assay: Dual receptor-specific antagonist screening (LOPAC), epinephrine response; type: cell-based; parameters: A431 cells endogenously express both PAR1 and β2AR; endogenous in cells; host or cells: A431 (human epidermoid carcinoma), quiescent after serum starvation
[5] = molecular target: T2, β2-adrenergic receptor (β2AR); conditions: for type of DMR signal induced: A431 cells, 2 nanomolar in b161/b162
Excerpt: as §1
A431 endogenously expresses large numbers of the β2AR, but neither β1 nor β3-ARs. […] The DMR signal consists of a small decreased signal (i.e., N-DMR) with a short duration, followed by an increased signal (i.e., P-DMR) to an elevated level.

[6] = molecular target: T2, β2-adrenergic receptor (β2AR); conditions: co-stimulation with 2 nM epinephrine and 1 μM histamine; high doses
[7] = molecular target: T1, histamine receptor subtype 1 (H1R)
Excerpt: as §1
To test this possibility, a desensitization assay was used.

[8] = molecular target: T1, histamine receptor subtype 1 (H1R); conditions: quiescent A431 cells
[9] = A431 cells, compound at 1 microM, real time kinetic
[10] = compound 1 microM for one hour, then cocktail of epinephrine and histamine

T1 sequence (P35367 whole entry): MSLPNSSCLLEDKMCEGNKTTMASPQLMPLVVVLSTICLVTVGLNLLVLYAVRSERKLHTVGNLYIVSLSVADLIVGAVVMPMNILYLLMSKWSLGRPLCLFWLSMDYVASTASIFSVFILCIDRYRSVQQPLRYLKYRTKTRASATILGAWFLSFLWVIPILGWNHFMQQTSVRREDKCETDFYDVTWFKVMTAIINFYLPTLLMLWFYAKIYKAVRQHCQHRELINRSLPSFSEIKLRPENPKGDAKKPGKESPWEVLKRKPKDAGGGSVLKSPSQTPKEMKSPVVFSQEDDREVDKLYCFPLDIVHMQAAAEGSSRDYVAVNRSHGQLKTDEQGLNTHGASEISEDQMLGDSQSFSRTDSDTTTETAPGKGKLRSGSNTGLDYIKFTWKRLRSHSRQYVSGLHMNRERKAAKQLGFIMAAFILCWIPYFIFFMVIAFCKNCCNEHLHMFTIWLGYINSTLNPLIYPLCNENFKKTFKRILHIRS

CC(C)NCC(O)c1ccc(NS(C)(=O)=O)cc1 (racemic) [(±)-Sotalol]
ligand-induced DMR signal in agonist screening [1, 9]: did not result in any apparent DMR signals

CN(C)CCC(c1ccc(Br)cc1)c1ccccn1 (racemic) [(±)-brompheniramine]
effect on the DMR signal induced by 1 μM histamine [2]: completely inhibited | ligand-induced DMR signal in agonist screening [1, 9]: did not lead to any DMR signal | effect on the histamine response in the co-stimulation [3]: completely or almost completely attenuated

COCCc1ccc(OCC(O)CNC(C)C)cc1 (racemic) [(±)-metoprolol]
ligand-induced DMR signal in agonist screening [1, 9]: did not result in any apparent DMR signals

CC(C)NCC(O)COc1cccc2ccccc12 (racemic) [(±)-propranolol]
ligand-induced DMR signal in agonist screening [1, 9]: did not result in any apparent DMR signals

CC(C)(C)NCC(O)COc1cccc2[nH]c(=O)[nH]c12 (racemic) [(±)CGP12177]
ligand-induced DMR signal in agonist screening [1, 9]: Gs-like DMR which only consists of the prolonged P-DMR event without the initial N-DMR event

CN(C)CCC(c1ccc(Cl)cc1)c1ccccn1 (racemic) [(±)chlorpheniramine]
ligand-induced DMR signal in agonist screening [1, 9]: did not lead to any DMR signal

CN(C)CC[C@@H](c1ccc(Br)cc1)c1ccccn1 [(+)-brompheniramine]
ligand-induced DMR signal in agonist screening [1, 9]: did not lead to any DMR signal | effect on the histamine response in the co-stimulation [3]: completely or almost completely attenuated

CN(C)CC[C@@H](c1ccc(Cl)cc1)c1ccccn1 [(+)-chlorpheniramine]
ligand-induced DMR signal in agonist screening [1, 9]: did not lead to any DMR signal

CC(C)NC[C@H](O)COc1cccc2ccccc12 [(S)-propranolol]
ligand-induced DMR signal in agonist screening [1, 9]: did not result in any apparent DMR signals

Cc1ccc(OCC(O)C(C)NC(C)C)c2c1CCC2 (stereo not shown) [ICI 118,551]
ligand-induced DMR signal in agonist screening [1, 9]: did not result in any apparent DMR signals | effect on the histamine response in the co-stimulation [3, 10]: little impact

CC(C)NCC(O)c1ccc(O)c(O)c1 (stereo not drawn) [R(−)isoproterenol]
ligand-induced DMR signal in agonist screening [1, 9]: typical Gs-type DMR signal

CC(C)(C)NC[C@H](O)COc1nsnc1N1CCOCC1 [S(−)-timolol]
ligand-induced DMR signal in agonist screening [1, 9]: did not result in any apparent DMR signals

CN(C)CCCCSC(=N)N [SKF91488]
effect on the DMR signal induced by 1 μM histamine [2]: did not have obvious impact

c1cc(CN2CCCCC2)cc(OCCCNc2nc3ccccc3s2)c1 [SKF95282]
ligand-induced DMR signal in agonist screening [1, 9]: DMR that was similar to pindolol | effect on the epinephrine response in the co-stimulation [4, 10]: partial desensitization

CCc1ccccc1OC[C@@H](O)CN[C@H]1CCCc2ccccc21 [SR 59230A]
ligand-induced DMR signal in agonist screening [1, 9]: did not result in any apparent DMR signals | effect on the epinephrine response in the co-stimulation [4, 10]: inhibited or partially attenuated | effect on the histamine response in the co-stimulation [3, 10]: little impact

C=CCc1ccccc1OCC(O)CNC(C)C (stereo not shown) [alprenolol]
ligand-induced DMR signal in agonist screening [1, 9]: did not result in any apparent DMR signals | effect on the histamine response in the co-stimulation [3, 10]: little impact

CCCCc1oc2ccccc2c1C(=O)c1cc(I)c(OCCN(CC)CC)c(I)c1 [amiodarone]
identification of beta-adrenoceptor agonists as hits in the agonist screen ([1]; A431 cells): false negative

CN(C)CCC=C1c2ccccc2CCc2ccccc21 [amitriptyline]
effect on the epinephrine response in the co-stimulation [4, 10]: little effect

Clc1ccc2c(c1)C(N1CCNCC1)=Nc1ccccc1O2 [amoxapine]
effect on the epinephrine response in the co-stimulation [4, 10]: little effect

CC(C)NCC(O)COc1ccc(CCOCC2CC2)cc1 (stereo not shown) [betaxolol]
ligand-induced DMR signal in agonist screening [1, 9]: did not result in any apparent DMR signals | effect on the histamine response in the co-stimulation [3, 10]: little impact

CN1CCC[C@@H]1CCO[C@](C)(c1ccccc1)c1ccc(Cl)cc1 [clemastine]
ligand-induced DMR signal in agonist screening [1, 9]: did not lead to any DMR signal

Clc1ccc(Cn2c(CN3CCCC3)nc3ccccc32)cc1 [clemizole]
effect on the DMR signal induced by 1 μM histamine [2]: completely inhibited | ligand-induced DMR signal in agonist screening [1, 9]: did not lead to any DMR signal | effect on the histamine response in the co-stimulation [3, 10]: completely or almost completely attenuated

CN(C)CCOC(C)(c1ccccc1)c1ccccn1 (stereo not shown) [doxylamine]
ligand-induced DMR signal in agonist screening [1, 9]: did not lead to any DMR signal | effect on the histamine response in the co-stimulation [3, 10]: completely or almost completely attenuated

CNC[C@H](O)c1ccc(O)c(O)c1 [epinephrine]
type of DMR signal induced [5]: Gs-type DMR signal | type of DMR signal induced ([5]; listed as Epinephrine): biphasic Gs-type DMR response | Hill slope of the epinephrine DMR response ([5]; quiescent A431 cells, n=10): 0.95 | effect of pretreatment on the epinephrine response [6]: completely inhibited

NC(N)=Nc1nc(CSCCC(N)=NS(N)(=O)=O)cs1 [famotidine]
ligand-induced DMR signal in agonist screening [1, 9]: DMR that was similar to pindolol | effect on the epinephrine response in the co-stimulation [4, 10]: partial desensitization

CC(C)(C(=O)O)c1ccc(C(O)CCCN2CCC(C(O)(c3ccccc3)c3ccccc3)CC2)cc1 (stereo not shown) [fexofenadine]
ligand-induced DMR signal in agonist screening [1, 9]: did not lead to any DMR signal

NCCc1c[nH]cn1 [histamine]
Hill slope for inhibition of the histamine response [7]: 1.4 | effect of pretreatment on the histamine response [7]: completely inhibited | ligand-induced DMR signal in agonist screening [1, 9]: biphasic Gq-type DMR signal; also recorded: Gq-like DMR signal | effect on the epinephrine response in the co-stimulation [4, 10]: but not to epinephrine | effect of pretreatment on the epinephrine response [6]: slightly attenuated | effect on the histamine response in the co-stimulation [3]: complete desensitization | type of DMR (optical) signal induced [8]: dose-dependent and saturable Gq-type optical signal | Hill coefficient of the histamine saturation curve ([8]; n=6): 1.87

N=C(N)SCCc1cnc[nH]1 [imetit]
ligand-induced DMR signal in agonist screening [1, 9]: did not lead to any obvious DMR signal

CN1CCC(=C2c3ccccc3CC(=O)c3sccc32)CC1 [ketotifen]
ligand-induced DMR signal in agonist screening [1, 9]: did not lead to any DMR signal

CNCCCC12CCC(c3ccccc31)c1ccccc12 [maprotiline]
effect on the epinephrine response in the co-stimulation [4, 10]: little effect

CN(C)CCN(Cc1cccs1)c1ccccn1 [methapyrilene]
ligand-induced DMR signal in agonist screening [1, 9]: did not lead to any DMR signal

CNCCC=C1c2ccccc2CCc2ccccc21 [nortriptyline]
effect on the epinephrine response in the co-stimulation [4]: little effect

CN(C)CCC(c1ccccc1)c1ccccn1 (stereo not shown) [pheniramine]
ligand-induced DMR signal in agonist screening [1, 9]: did not lead to any DMR signal | effect on the histamine response in the co-stimulation [3, 10]: partial inhibition

CC(COc1ccccc1)N(CCCl)Cc1ccccc1 (stereo not shown) [phenoxybenzamine]
effect on the epinephrine response in the co-stimulation [4, 10]: little effect | effect on the histamine response in the co-stimulation [3]: almost completely inhibited

CC(CN1c2ccccc2Sc2ccccc21)N(C)C (stereo not shown) [promethazine]
ligand-induced DMR signal in agonist screening [1, 9]: did not lead to any DMR signal

COc1ccc(CN(CCN(C)C)c2ccccn2)cc1 [pyrilamine]
ligand-induced DMR signal in agonist screening [1, 9]: did not lead to any DMR signal

CC(C)(C)c1ccc(C(O)CCCN2CCC(C(O)(c3ccccc3)c3ccccc3)CC2)cc1 (stereo not shown) [terfenadine]
ligand-induced DMR signal in agonist screening [1, 9]: did not lead to any DMR signal

S=C(NC1CCCCC1)N1CCC(c2cnc[nH]2)CC1 [thioperamide]
effect on the DMR signal induced by 1 μM histamine [2]: did not have obvious impact

Cc1ccc(/C(=C\CN2CCCC2)c2ccccn2)cc1 [triprolidine]
effect on the DMR signal induced by 1 μM histamine [2]: completely inhibited | ligand-induced DMR signal in agonist screening [1, 9]: did not lead to any significant DMR signal | effect on the histamine response in the co-stimulation [3, 10]: completely or almost completely attenuated

(S)-(−)-propafenone
ligand-induced DMR signal in agonist screening [1, 9]: did not result in any apparent DMR signals | effect on the epinephrine response in the co-stimulation [4, 10]: inhibited or partially attenuated

(±)-ephedrine
identification of beta-adrenoceptor agonists as hits in the agonist screen ([1]; A431 cells): false negative

(±)isoproterenol
ligand-induced DMR signal in agonist screening [1, 9]: typical Gs-type DMR signal

R(−)-α-methyl-histamine
ligand-induced DMR signal in agonist screening [1]: did not lead to any obvious DMR signal

Ruthernium red
ligand-induced DMR signal in agonist screening [1, 9]: Gs-like DMR signal but with much larger amplitude

S(−)pindolol
ligand-induced DMR signal in agonist screening [1, 9]: Gs-like DMR which only consists of the prolonged P-DMR event without the initial N-DMR event
